# Measurements from patent US8178506B2, “Oligomeric compounds and compositions for use in modulation of small non-coding RNAs” (Regulus Therapeutics Inc., priority 2003, dated 2012).
# In the oligonucleotide strings, read from the 5' end, every base follows the letter of its sugar. An asterisk marks phosphorothioate; unmarked linkages are phosphodiester. Other units and linkages are bracketed, terminal groups are in braces. A string of capitals states the bases alone. e = 2'-O-(2-methoxyethyl) (MOE); [5mC] = 5-methylcytosine; d = 2'-deoxy (DNA)
# Assays:
# [1] = test system: T47D cells; test: Cell cycle assay in T47D cells; format: cell-based, human; conditions: 150 nM, 48 hours, relative to untreated control
# [2] = test system: mir-143 miRNA binding site; test: GFP mir-143 sensor reporter in T-REx-HeLa cells; format: cell-based, human; conditions: T-REx-HeLa, 24 hours post-transfection
# Text: Reporter systems have been developed herein to assess the ability of miRNA mimics to provoke a gene silencing response and to assess whether antisense oligomeric compounds targeting miRNAs can inhibit gene silencing activity. The T-REx™-HeLa cell line (Invitrogen Corp., Carlsbad, Calif.) was used for either stable or transient transfections with plasmids constitutively expressing miRNAs, pre-miRNAs, pri-miRNAs or mimics thereof, and, in some cases, antisense oligomeric compounds targeting the expressed miRNA were also transfected into the cells. It is understood that other mammalian cells lines can also be used in this reporter system. T-REx™-HeLa cells were routinely cultured in DMEM, high glucose (Invitrogen Corporation, Carlsbad, Calif.), supplemented with 10% fetal bovine serum (Invitrogen Corporation). […] Cells were harvested when they reached 90% confluence, and on the day before transfection with expression or reporter plasmids (described in detail below), the T-REx™-HeLa cells were seeded onto 24-well plates at 50,000 cells/well. The following day, cells were transfected according to standard published procedures with various combinations of plasmids using 2 μg Lipofectamine™ 2000 Reagent (Invitrogen) per μg of plasmid DNA. When transfecting oligomeric compounds, 1-3 μg of Lipofectamine™ 2000 Reagent was used per 100 nM oligomeric compound.
# Plasmids used are as follows: The pcDNA3.1©/NT-GFP (Invitrogen) plasmid, containing a CMV promoter controlling expression of a GFP reporter sequence at the N-terminus of the transcription start site was used as a control plasmid. The pcDNA3.1©/NT-GFP-mir-143 sensor plasmid contains (in addition to the elements above) three 22-nucleotide sites encoding the mir-143 miRNA binding site, downstream of the GFP coding sequence and upstream of the polyadenylation signal. The pCR3-pri-mir-143 plasmid (“pri-mir-143”) is a CMV promoter-driven constitutive expression plasmid which expresses the 110-nucleotide mir-143 pri-miRNA sequence (SEQ ID NO: 38), to act as a mir-143 pri-miRNA mimic. The pCR3-pri-mir control (“pri-mir-control”) is a CMV promotor-driven constitutive expression plasmid which is designed to express a similar 110-nucleotide pri-miRNA sequence ([…] CAGC; SEQ ID NO: 862) wherein the mature mir-143 sequence has been replaced with an unrelated sequence and the predicted complementary strand opposite it within the pri-miRNA structure is replaced with a nearly complementary sequence in order to preserve the stem loop as well as the bulge structure of the natural mir-143 pri-miRNA. Additionally, in order to test the effect of an oligomeric compound targeting a miRNA, the T-REx™-HeLa cells were also transfected with the uniform 2′-MOE phosphorothioate (PS) antisense oligomeric compound ISIS Number 327901 (SEQ ID NO: 319), targeted to mir-143 previously described.
# Twenty-four hours post-transfection, cells were trypsinized and GFP fluorescence was analyzed by flow cytometry.
Substance,% cells in cell cycle phase G1 [1] [%],% cells in cell cycle phase G2/M [1] [%],% cells in cell cycle phase S [1] [%],% cells in cell cycle phase aneuploid [1] [%],% cells in cell cycle phase subG1 [1] [%],expression of GFP from the pcDNA3.1/NT-GFP-mir-143 sensor plasmid [2]
328403 (antisense eA*eG*eG*e[5mC]*e[5mC]*dT*dA*dT*dT*d[5mC]*d[5mC]*dT*dG*dT*dA*eG*e[5mC]*eA*eA*eA) [compound 328403],104,89,112,175,49,–
"ds-mir-143: double-stranded RNA of ISIS 342199 hybridized to its perfect complement ISIS 342200 (sense UGAGAUGAAGCACUGUAGCUCA; antisense UGAGCUACAGUGCUUCAUCUCA; RNA, backbone not given here)",–,–,–,–,–,inhibited expression of GFP from the sensor plasmid in a dose dependent manner
